According to US4994439A, “Transmembrane formulations for drug administration” (California Biotechnology Inc., priority 1989, dated 1991):

Experiments:
[1] = Transport of insulin across rat nasal tissue (plasma insulin, delivery via the nares); type: in vivo; details: 5IU/kg insulin intranasal, FIG. 5
Protocol: Efficacy in transport of insulin and of human growth hormone across rat nasal tissue was evaluated. Male Sprague-Dawley rats (Simonsen, Gilroy, CA, 240-300 gm) were anesthetized by subcutaneous injection of Acepromazine (3 mg/kg) followed 10 minutes later by intraperitoneal injections of inactin (100 mg/kg) for experiments shown in FIGS. 4-6 or by intraperitoneal (IP) injection of sodium pentobarbital (65 mg/kg), with additional doses given intravenously as necessary for experiments shown in FIGS. 7-8. A trachea tube was inserted to assist breathing.
In FIGS. 4-6, insulin or hGH was delivered directly via the nares; no esophageal cannula was inserted; the test solution (50 ul) was delivered 1 cm into the nasal cavity using PE 10 tubing attached to a Hamilton syringe.
In all cases, blood samples (0.5 ml) were drawn from a catheter in the right jugular vein and diluted with heparinized saline. Plasma (300-400 ul) was separated and stored at 4° C. for less than 48 hours prior to analysis of growth hormone using an immunoradiometric assay (Tandem R, Hybritech, Inc, San Diego, Calif.) or of insulin using a radioimmunoassay (Micromedic, ICN Micromedic Systems, Horsham, Pa.). […] Estimations of area under the curve (AUC) of plots of plasma insulin or hGH concentration versus time were calculated using the trapezoidal rule.

[2] = Critical micellar concentration by rhodamine 6G method; type: physicochemical; details: for CMC expressed on a molar basis: for the mixture: total surfactant; for CMC (as percent w/v): rhodamine 6G method
Protocol: The CMC is not a single value, but a range of concentrations. Because the range is relatively narrow, a single concentration within this transition zone is defined as the CMC. The CMC for each individual molecule and for each mixture can be determined experimentally in variety of ways; that illustrated below is the rhodamine 6G method of Carey, M.C., et al J Colloid Interface Sci (1969) 31:382-396. In this method, a low concentration of rhodamine 6G is added as a probe in a series of dispersions or solutions of the material to be tested. Where the solute concentration is below the CMC the probe molecule has a lambdamax at 523 nm; above the CMC, the probe binds to the micelle, which causes the lambdamax to increase to approximately 532 nm. By plotting the wavelength of the maximum absorption of the rhodamine 6G probe as a function of concentration of test materials, two lines of differing slopes are obtained which intersect at the CMC. The value of the intersection is then taken as the value of the CMC for the particular dispersion.
When this procedure is conducted for solutions of STDHF, Solulan C-24, or a 1:1 mixture of these materials, the CMC values (as percent w/v) obtained are 0.14% for STDHF; 0.028% for Solulan C-24; and 0.012% for the mixture of the two--i.e., 0.006% STDHF plus 0.006% Solulan C-24. Thus, for the mixture of STDHF and Solulan C-24, the CMC for the mixture is lower than that for either component alone. These values establish minimum concentration levels needed for the invention composition, and also establish that the two components form mixed micelles. If there were two separate populations of micelles, the CMC as measured by the above-described method would be equal to that of Solulan C-24. The existence of mixed micelles can be verified with other data as described below.

[3] = Quasi-elastic light-scattering of micelles; type: physicochemical
Description: Solulan C-24 forms micelles with a radius of 75 angstroms; STDHF forms micelles with a radius of 17 angstroms, and the mixture (1:1 w/w) forms micelles with a radius of 40 angstroms.

[4] = test system: red blood cells; experiment: Red blood cell (RBC) lysis as a measure of toxicity; type: cell-based; details: FIG. 3
Protocol: Consistent results were obtained when red blood cell (RBC) lysis was evaluated as a measure of toxicity and SGDHF was used as the fusidate component. […] Thus, the addition of the detergent appears to protect against the lytic effect of the fusidate.

Row | time course of plasma insulin level [1] | CMC expressed on a molar basis [2] | CMC (as percent w/v) [2] | micelle radius [3] | Molecule | RBC lysis ([4]; concentration range of 0-0.3%) | RBC lysis ([4]; 0.3% concentration)
1 | lower levels | 2.0 mM | 0.14% | 17 angstroms | CC(=O)O[C@H]1C[C@@]2(C)[C@@H](C[C@@H](O)[C@H]3[C@@]4(C)CC[C@@H](O)[C@@H](C)[C@@H]4CC[C@@]32C)/C1=C(\CCCC(C)C)C(=O)NCCS(=O)(=O)[O-].[Na+] [STDHF, sodium tauro-24,25-dihydrofusidate] |  | 
2 | lower levels | 0.19 mM | 0.028% | 75 angstroms | polyoxyethylene-24-cholesterol ether [Solulan C-24] | low values of RBC lysis | 
3 |  |  |  |  | sodium glyco-24,25-dihydrofusidate [SGDHF] |  | 100%
